From patent EP2787958B1, “CHELIDONIUM MAJUS EXTRACTS AND THEIR USE IN THE TREATMENT OF SKIN DISORDERS AND PROMOTION OF SKIN REGENERATION” (priority 2011, dated 2013)
Like-named read-outs stand apart in the source and are kept apart here.

Columns and labels:
[1] = tested on: Human keratinocytes (HEK, Human Epidermal Keratinocytes); experiment: Mitochondrial dehydrogenase activity (WST-1 formazan assay) in HEK cells; format: cell-based
HDF cells [2] = experiment: Summary of uses and toxic effects deduced from the cell assays (Table 1); format: cell-based, Human
In short: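 HDF cells exposed to test substances at a given dosage for 24 h; uses and toxicity inferred from free-radical scavenging, mitochondrial dehydrogenase activity, IL-1β/IL-6 production (basal or induced by 100 µM H2O2), proliferation under standard growth conditions, and senescence-like morphology.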

interleukin 6 (IL-6) = experiment: Inflammatory cytokines in cell supernatant (Mosaic ELISA microarray): IL-6; format: cell-based, Human; conditions: for IL-6 ng/(ml* No. of cells from photo) ± SD: 24 hours; for IL-6 production (effect in words): 1-10 µM
[3] = tested on: HUVEC cells (Human Umbilical Vein Endothelial Cells); experiment: Mitochondrial dehydrogenase activity (WST-1 formazan assay) in HUVEC cells; format: cell-based; conditions: vascular endothelial cells
HDF cells [4] = experiment: Evaluation of cell proliferation (counting of Sirius Red stained cells in photographs); conditions: 24 hours
interleukin 1β (IL-1β) = experiment: Inflammatory cytokines in cell supernatant (Mosaic ELISA microarray): IL-1β; format: cell-based, Human; conditions: 24 hours
[5] = tested on: collagen produced by HDF cells; experiment: Quantity of collagen produced by the cells (elution of Sirius Red); conditions: 1-10 µM (1 µM and 10 µM)
[6] = Anti-radical activity (decay of the DPPH radical); format: biochemical; conditions: for Anti-radical (skin protective): 24 hours
In short: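 Test substance in ethanol mixed 1:1 with 200 µM DPPH (stock concentrations), in quadruplicate. Absorbance read at 530 nm after 30 min, with vitamin C and ethanol-only controls. IC50 from variable-slope Hill regression of dose-activity curves.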

[7] = tested on: Human dermal fibroblasts (HDF); experiment: Mitochondrial dehydrogenase activity (WST-1 formazan assay) in HDF cells; conditions: for Revitalizing agent: 24 hours; for activity at 1 µM / activity at 10 µM: Homo sapiens, Fibroblast, read-out: % mitochondrial dehydrogenase activity ± SD
Description: Human dermal fibroblasts were used for assay at the 3rd T75 passage.
Mitochondrial dehydrogenase activity was measured in HDF, HEK and HUVEC cells by means of the formazan assay, using the WST-1 kit from Roche Diagnostic in accordance with the supplier's instructions. Briefly: the reagent was added (10 µl per well), the incubation was carried out for a further 2 hours or 4 hours, and, at the end of this time, the absorbance was read for 1 s at a wavelength of 450 nm in a Perkin Elmer Victor 2 Wallac microplate reader.
The activity percentage (% mitochondrial dehydrogenase activity) is defined as: % mitochondrial dehydrogenase activity = ((absorbance of treated cells - absorbance of blank) / (absorbance of control - absorbance of blank)) x 100.
The tests were performed with observations after 18 hours, seeding 8,000 cells per well, and after 42 hours, seeding 2,000 cells per well. Furthermore, in order to better analyze the dose/response curves for dihydroberberine, canadine and stylopine, curves were collected at 11 concentrations by seeding 2,000 cells per well with 46 hours incubation.
Dose/response curves are plotted at 6 concentrations. The tests were performed with observations after 24 hours, seeding 8,000 cells per well.

[8] = Dose 1 µm (coptisine: 1 pm [sic]), 24 hours
[9] = Dose 1 µm (coptisine: 1 pm [sic])

COc1ccc2cc3[n+](cc2c1OC)CCc1cc2c(cc1-3)OCO2 [berberine]
mitochondrial dehydrogenase activity (effect in words) ([1]; higher doses): inhibit mitochondrial dehydrogenase activity | mitochondrial dehydrogenase activity (effect in words) ([1]; low doses): stimulate mitochondrial dehydrogenase activity | Cytotoxic (HDF cells [2]): No | Irritant (HDF cells [2]): No | Anti-fibrotic (prevention of scar formation, also from acne) (HDF cells [2]; [8]): Yes (↓collagen, ↓IL-6) | Cytoprotective (antioxidant, anti-inflammatory and anti-ageing; useful also in the treatment of acne) (HDF cells [2]; [8]): Yes* (↓IL-6) | Wound-healing (HDF cells [2]; [8]): No | Anti-fibrotic (prevention of scar formation, also from acne) (HDF cells [2]; Dose 10 µm, 24 hours): Yes (↓collagen, ↓IL-6) | Cytoprotective (antioxidant, anti-inflammatory and anti-ageing; useful also in the treatment of acne) (HDF cells [2]; Dose 10 µm, 24 hours): Yes* (↓IL-6) | Cytotoxic (HDF cells [2]; Dose 10 µm, 24 hours): No | Irritant (HDF cells [2]; Dose 10 µm, 24 hours): No | Wound-healing (HDF cells [2]; Dose 10 µm, 24 hours): No | concentrations at which no toxic (cytotoxic and irritant) effects are shown (HDF cells [2]; exposure for 24 hours): less than or equal to 10 µM | IL-6 ng/(ml* No. of cells from photo) ± SD (interleukin 6 (IL-6); 1 µM, 34 ng/ml TGF-β1): 657±5 ng/(ml* No. of cells from photo) | IL-6 ng/(ml* No. of cells from photo) ± SD (interleukin 6 (IL-6); 1 µM, 100 µM H2O2): 1519±155 ng/(ml* No. of cells from photo) | IL-6 ng/(ml* No. of cells from photo) ± SD (interleukin 6 (IL-6); 1 µM, Standard conditions): 843±35 ng/(ml* No. of cells from photo) | IL-6 ng/(ml* No. of cells from photo) ± SD (interleukin 6 (IL-6); 10 µM, 34 ng/ml TGF-β1): 603±21 ng/(ml* No. of cells from photo) | IL-6 ng/(ml* No. of cells from photo) ± SD (interleukin 6 (IL-6); 10 µM, 100 µM H2O2): 1201±84 ng/(ml* No. of cells from photo) | IL-6 ng/(ml* No. of cells from photo) ± SD (interleukin 6 (IL-6); 10 µM, Standard conditions): 618±25 ng/(ml* No. of cells from photo) | IL-6 production (effect in words) (interleukin 6 (IL-6); 34 ng/ml TGF-β1): tendency to reduce the production of IL-6 in a dose-dependent manner | IL-6 production (effect in words) (interleukin 6 (IL-6); 100 µM H2O2): tendency to reduce the production of IL-6 in a dose-dependent manner | IL-6 production (effect in words) (interleukin 6 (IL-6); standard conditions): tendency to reduce the production of IL-6 in a dose-dependent manner | mitochondrial dehydrogenase activity (effect in words) ([3]; higher doses): inhibit mitochondrial dehydrogenase activity | mitochondrial dehydrogenase activity (effect in words) ([3]; low doses): stimulate mitochondrial dehydrogenase activity | No. of cells from photo ± SD (HDF cells [4]; 1 µM, 34 ng/ml TGF-β1): 181±18 | No. of cells from photo ± SD (HDF cells [4]; 1 µM, 100 µM H2O2): 129±24 | No. of cells from photo ± SD (HDF cells [4]; 1 µM, Standard conditions): 203±11 | No. of cells from photo ± SD (HDF cells [4]; 10 µM, 34 ng/ml TGF-β1): 184±28 | No. of cells from photo ± SD (HDF cells [4]; 10 µM, 100 µM H2O2): 119±10 | No. of cells from photo ± SD (HDF cells [4]; 10 µM, Standard conditions): 176±35 | IL-1β ng/(ml* No. of cells from photo) ± SD (interleukin 1β (IL-1β); 1 µM, 34 ng/ml TGF-β1): 138±5 ng/(ml* No. of cells from photo) | IL-1β ng/(ml* No. of cells from photo) ± SD (interleukin 1β (IL-1β); 1 µM, 100 µM H2O2): 178±1 ng/(ml* No. of cells from photo) | IL-1β ng/(ml* No. of cells from photo) ± SD (interleukin 1β (IL-1β); 1 µM, Standard conditions): 120±6 ng/(ml* No. of cells from photo) | IL-1β ng/(ml* No. of cells from photo) ± SD (interleukin 1β (IL-1β); 10 µM, 34 ng/ml TGF-β1): 146±4 ng/(ml* No. of cells from photo) | IL-1β ng/(ml* No. of cells from photo) ± SD (interleukin 1β (IL-1β); 10 µM, 100 µM H2O2): 210±16 ng/(ml* No. of cells from photo) | IL-1β ng/(ml* No. of cells from photo) ± SD (interleukin 1β (IL-1β); 10 µM, Standard conditions): 94±5 ng/(ml* No. of cells from photo) | collagen production (effect in words) ([5]; 34 ng/ml TGF-β1): antagonizes the stimulation of collagen induced by 34 ng/ml TGF-β1 | collagen production (effect in words) ([5]; 100 µM H2O2): antagonizes the inhibition of collagen production induced by H2O2 | % DPPH activity ([6]; 1 mM, 30 minutes): 100% | Anti-radical (skin protective) [6, 9]: No | Anti-radical (skin protective) ([6]; Dose 10 µm): No | mitochondrial dehydrogenase activity (effect in words) ([7]; 1 and 10 µM, 18 h and 42 h, more marked at 42 h): increased with respect to the control | Revitalizing agent [7, 9]: Yes | Revitalizing agent ([7]; Dose 10 µm): Yes | activity at 1 µM ([7]; 18 h): 114 ± 2.98% | activity at 10 µM ([7]; 18 h): 114 ± 10% | activity at 1 µM ([7]; 42 h): 140 ± 8.89% | activity at 10 µM ([7]; 42 h): 132 ± 10.2% | mitochondrial dehydrogenase activity (effect in words) ([7]; fibroblast cells, higher doses): inhibit mitochondrial dehydrogenase activity | mitochondrial dehydrogenase activity (effect in words) ([7]; fibroblast cells, low dosage): stimulate mitochondrial dehydrogenase activity
